The structures appear in SMILES notation.

The term IC50 denotes the concentration needed to halve the response being measured.

The target of test [1] is T1, AsPC-1 cells (Homo sapiens, UniProt P01116, G12D).
T1 construct: p-ERK/total ERK AlphaSureFire read-out
As to the kind of experiment: Cellular phospho-ERK assay, AsPC-1 cells (KRAS G12D). Format: cell-based. As to conditions: 2 hours, read-out: AsPC1 pERK IC50. As to the method: Procedure for Cellular Phospho-ERK Assay in KRAS Wild Type and Mutant (G12D, G12V) Cell Lines
PANC08.13 cells (ATCC® CRL-2551™), containing homozygous KRAS-G12D activating mutation, were cultured in growth medium made of RPMI1640-GlutaMAX™-I (ThermoFisher Scientific 61870) containing 15% heat inactivated fetal bovine serum (ThermoFisher Scientific 10091148)). AsPC-1 cells (ATCC® CRL-1682™), containing homozygous KRAS-G12D activating mutation, were cultured in T150 flask in growth medium (RPMI medium 1640-GlutaMAX™-I (ThermoFisher Scientific 61870) containing 10% fetal bovine serum (ThermoFisher Scientific 10091148)).
Cells for the assay were harvested in growth medium after TrypLE (ThermoFisher scientific 12604021) digestion and were seeded in a 384-well collagen coated cell culture plate (Corning 356702) at a density of 10,000-15,000 cells/20 μL/well, and incubated at 37° C., 5% CO2 overnight. The compound (with 10 mM stock concentration) dose-response titrations were prepared [30 μM final ERK detection assay concentration and 1:3 dilutions, 10-point dose response] and appropriate amounts (270 nL) of test compounds were dispensed in a 384-well intermediate plate using an Echo 550 liquid handler. 30 μL/well of RPMI medium 1640-GlutaMAX™-I was added to the intermediate plate and the contents of the intermediate plate (10 μL/well) were then transferred to the 384-well collagen coated cell culture plate, which was incubated at 37° C., 5% CO2 for 2 hours. After removal of medium from the collagen coated cell culture plate, cells were lysed in lysis buffer from Alpha SureFire® Ultra™ Multiplex p-ERK and total ERK assay kit (PerkinElmer MPSU-PTERK) containing Halt™ Protease and Phosphatase inhibitor cocktail (ThermoFisher Scientific 78446) at room temperature with constant shaking at 300 rpm for 30 minutes. The cell lysates were then transferred to an OptiPlate-384 plate (PerkinElmer 6005620), and the phosphorylation of ERK (p-ERK) and total ERK levels were detected by Alpha SureFire® Ultra™ Multiplex p-EEK kit and total ERK assay kit (PerkinElmer MPSU-PTERK) following the manufacturer's protocol. Assay plates were read on a EnVision Multimode Plate Reader (PerkinElmer), and the ratio of p-ERK vs. total ERK in each well was used as the final readout. Dose response curves were analyzed using a 4-parameter logistic model to calculate IC50 values using Spotfire software.

In test [2] the target is KRAS WT (Homo sapiens, UniProt P01116). The experiment in a line: SOS-catalyzed nucleotide exchange assay, KRAS WT (Procedure A). To be noted: GNE. Format: biochemical. The source says:
(§1) Procedure for SOS-Catalyzed Nucleotide Exchange Assay for KRAS-WT, G12C/D/V, G13D, HRAS, and NRAS (Procedure A)
(§2) Recombinant KRAS-G12C protein used in this assay has an additional triple mutation (C51S/C80L/C118S). Whereas KRAS-WT, G12D/V, G13D, HRAS and NRAS are in context of their WT protein sequence background. Specifically, the SOS-catalyzed nucleotide exchange assay utilizes a preformed TR-FRET complex containing a specific biotinylated RAS protein (KRAS-WT, G12C/V/D, G13D, HRAS, NRAS; described above) with Bodipy-GDP, and Terbium-streptavidin. Compounds are preincubated with this complex for 60 minutes. Subsequently, recombinant human SOS protein and unlabeled GTP are added to initiate the exchange reaction. Small molecule inhibitors stabilize the Bodipy-GDP complex whereas the untreated protein rapidly exchanges Bodipy-GDP for unlabeled GTP resulting in reduced TR-FRET signal.
(§3) To assemble the preformed TR-FRET complexes, each biotinylated RAS protein is diluted to 2 μM in an EDTA Buffer (20 mM HEPES pH 7.5, 50 mM sodium chloride, 10 mM EDTA, and 0.01% Tween) and incubated at room temperature for one hour. This mixture is then further diluted to 90 nM in an Assay Buffer (20 mM HEPES pH 7.5, 150 mM sodium chloride, 10 mM magnesium chloride, and 0.005% Tween) containing 15 nM of Terbium-Streptavidin (Invitrogen, catalog #PV3577) and 900 nM of Bodipy-GDP (Invitrogen, catalog #G22360) and incubated at room temperature for six hours. It should be noted that this preformed TR-FRET complex for each of the RAS protein were made ahead of time, aliquoted and stored at −80° C. until the day of the experiment.
(§4) Each test compound (10 mM stock in DMSO) is diluted in DMSO to make a final-10-point, 3-fold dilution and is acoustically dispensed into a 384-well assay plate (Corning, catalog #3820) using an Echo 550 (Labcyte). Each well of the assay plate receives 3 μL of a specific 3×RAS preformed TR-FRET complex and 3 μL of Assay Buffer and is incubated at room temperature for 60 minutes (preincubation time). Each well then receives 3 μL of 3× recombinant human SOS protein and GTP (Sigma, G8877) in Assay Buffer and is incubated at room temperature for 30 minutes (G13D), 60 minutes (KRAS WT/G12C/D, H/NRAS) or 90 minutes for G12V. The final reaction in each well of 9 μL consists of 3 mM GTP, specific Ras and SOS proteins in the following concentrations: KRAS-G12C/SOS=3 nM/40 nM, KRAS-WT and G12D/SOS=1 nM/40 nM, KRAS-G12V/SOS=1.25 nM/160 nM, KRAS-G13D/SOS=1.25 nM/0 nM, HRAS and NRAS=1.25 nM/40 nM.
(§5) The time-resolved fluorescence resonance energy transfer (TR-FRET) signal is measured on an Envision (PerkinElmer) plate reader: Excitation filter=340 nm; emission1=495 nm; emission2=520 nm; dichroic mirror=D400/D505; delay time=[…]. The signal of each well is determined as the ratio of the emission at 520 nm to that at 495 nm. Percent effect of each well is determined after normalization to control wells containing DMSO (no effect) or a saturating concentration of inhibitor (max effect). The apparent effect as a function of compound concentration is fit to a four-parameter logistic equation.
(§6) For Example No. 14, nucleotide exchange assays for KRAS G12D, WT, G12C, and G12V were performed according to Procedure B. All the other compounds were tested according to Procedure A.

In test [3] the target is KRAS G12V (Homo sapiens, UniProt P01116, G12V). As to the kind of experiment: SOS-catalyzed nucleotide exchange assay, KRAS G12V (Procedure A). Format: biochemical. As to conditions: GNE.
Description: as §1, §2, §3, §4, §5, §6

Test [4] concerns the target KRAS G12D (Homo sapiens, UniProt P01116, G12D). The experiment in a line: SOS-catalyzed nucleotide exchange assay, KRAS G12D (Procedure A). To be noted: guanine nucleotide exchange (GNE). In kind it is biochemical.
Description: as §1, §2, §3, §4, §5, §6

Chain of KRAS WT (P01116 with tags, fused parts or gaps isoform P01116-2): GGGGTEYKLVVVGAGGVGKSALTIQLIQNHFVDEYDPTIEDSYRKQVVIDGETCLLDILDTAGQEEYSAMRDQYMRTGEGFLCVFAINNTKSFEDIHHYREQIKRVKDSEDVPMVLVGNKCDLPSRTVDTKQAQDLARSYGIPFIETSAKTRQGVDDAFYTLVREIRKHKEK
Chain of KRAS G12V (P01116 with tags, fused parts or gaps isoform P01116-2 G12V): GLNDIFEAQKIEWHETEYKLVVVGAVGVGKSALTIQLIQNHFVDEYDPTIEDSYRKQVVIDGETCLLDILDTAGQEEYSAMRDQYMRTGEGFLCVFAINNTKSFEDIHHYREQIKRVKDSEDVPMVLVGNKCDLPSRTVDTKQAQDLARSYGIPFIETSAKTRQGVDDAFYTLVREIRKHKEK
T1 sequence (P01116 1-188 isoform P01116-2 G12D): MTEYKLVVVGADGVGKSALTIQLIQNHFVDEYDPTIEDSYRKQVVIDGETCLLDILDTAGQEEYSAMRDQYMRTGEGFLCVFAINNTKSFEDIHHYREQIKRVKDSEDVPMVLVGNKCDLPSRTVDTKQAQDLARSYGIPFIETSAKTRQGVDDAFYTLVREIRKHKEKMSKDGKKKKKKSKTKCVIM
Chain of KRAS G12D (P01116 with tags, fused parts or gaps isoform P01116-2 G12D): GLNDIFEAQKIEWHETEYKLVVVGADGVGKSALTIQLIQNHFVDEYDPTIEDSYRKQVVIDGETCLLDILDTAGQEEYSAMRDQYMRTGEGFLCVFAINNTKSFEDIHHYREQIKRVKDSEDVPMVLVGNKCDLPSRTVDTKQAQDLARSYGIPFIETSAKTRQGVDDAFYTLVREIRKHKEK

As for `F[C@H]1CN2CCC[C@@]2(COc2nc(N3C[C@H]4CC[C@@H](C3)N4)c3c(n2)sc2c(-c4c5cn[nH]c5cc5cccc(Cl)c45)nccc23)C1` [Ex-58, 4-((1R,5S)-3,8-diazabicyclo[3.2.1]octan-3-yl)-8-(5-chloro-1H-benzo[/]indazol-4-yl)-2-(((2R,7aS)-2-fluorotetrahydro-1H-pyrrolizin-7a(5H)-yl)methoxy)pyrido[4′,3′:4,5]thieno[2,3-d]pyrimidine], the IC50 in test [1] was found to be 447 nM; in test [2], 1830 nM; in test [3], 2560 nM; in test [4], 9.3 nM.
As for `Cc1cc2[nH]ncc2c(-c2nccc3c2sc2nc(OC[C@@]45CCCN4C[C@H](F)C5)nc(N4C[C@@H]5CC[C@H]4CN5)c23)c1C(F)(F)F` [Ex-75, 4-((1S,4S)-2,5-diazabicyclo[2.2.2]octan-2-yl)-2-(((2R,7aS)-2-fluorotetrahydro-1H-pyrrolizin-7a(5H)-yl)methoxy)-8-(6-methyl-5-(trifluoromethyl)-1H-indazol-4-yl)pyrido[4′,3′:4,5]thieno[2,3-d]pyrimidine], the IC50 in test [1] was 629 nM; in test [2], 3680 nM; in test [3], more than 11100 nM; in test [4], 38.1 nM.
Take `F[C@H]1CN2CCC[C@@]2(COc2nc(N3C[C@H]4CC[C@@H](C3)N4)c3c(n2)sc2c(-c4c(C5(F)CC5)c(C(F)(F)F)cc5[nH]ncc45)nccc23)C1` [Ex-79, 4-((1R,5S)-3,8-diazabicyclo[3.2.1]octan-3-yl)-8-(5-(1-fluorocyclopropyl)-6-(trifluoromethyl)-1H-indazol-4-yl)-2-(((2R,7aS)-2-fluorotetrahydro-1H-pyrrolizin-7a(5H)-yl)methoxy)pyrido[4′,3′:4,5]thieno[2,3-d]pyrimidine]: the concentration for half-maximal inhibition (IC50) in test [1] is 612 nM; in test [2] it was 4810 nM; in test [3] it was 4490 nM; in test [4] it was 12.3 nM.
On to `F[C@H]1CN2CCC[C@@]2(COc2nc(N3C[C@H]4CC[C@@H](C3)N4)c3c(n2)sc2c(-c4c(C5CC5)c(C(F)(F)F)cc5[nH]ncc45)nccc23)C1` [Ex-80, 4-((1R,5S)-3,8-diazabicyclo [3.2.1]octan-3-yl)-8-(5-cyclopropyl-6-(trifluoromethyl)-1H-indazol-4-yl)-2-(((2R,7aS)-2-fluorotetrahydro-1H-pyrrolizin-7a(5H)-yl)methoxy)pyrido [4′,3′:4,5]thieno [2,3-d]pyrimi-dine], for which the half-maximal inhibitory concentration (IC50) in test [1] was 411 nM; in test [2] it was 706 nM; in test [3] it was 734 nM; in test [4], 3.57 nM.
The like results for `Cc1cc2[nH]ncc2c(-c2nccc3c2sc2nc(N4CCCN(C)CC4C)nc(N4C[C@H]5CC[C@@H](C4)N5)c23)c1C(F)(F)F` (stereo partly drawn) [Ex-81, 4-((1R,5S)-3,8-diazabicyclo[3.2.1]octan-3-yl)-2-(2,4-dimethyl-1,4-diazepan-1-yl)-8-(6-methyl-5-(trifluoromethyl)-1H-indazol-4-yl)pyrido[4′,3′:4,5]thieno[2,3-d]pyrimidine] were, in that order, 6800 nM, more than 11100 nM, more than 11100 nM and 575 nM.
As for `C#Cc1c(F)sc2cc3[nH]ncc3c(-c3nccc4c3sc3nc(OC[C@@]56CCCN5C[C@H](F)C6)nc(N5C[C@H]6CC[C@@H](C5)N6)c34)c12` [Ex-82, 4-((1R,5S)-3,8-diazabicyclo[3.2.1]oc-tan-3-yl)-8-(5-ethynyl-6-fluoro-1H-thieno[3,2-f]indazol-4-yl)-2-(((2R,7aS)-2-fluorotetrahydro-1H-pyrrolizin-7a(5H)-yl)methoxy)pyri-do[4′,3′:4,5]thi-eno[2,3-d]pyrimidine], the IC50 came out at 6.29 nM in test [1], 12.5 nM in test [2], 16.2 nM in test [3] and 1.93 nM in test [4].
Take `C#Cc1csc2cc3[nH]ncc3c(-c3nccc4c3sc3nc(OC[C@]5(CN6CC7(C6)CC(F)(F)C7)CC5(F)F)nc(N5C[C@H]6CC[C@@H](C5)N6)c34)c12` [Ex-83, 4-((1R,5S)-3,8-diazabicyclo[3.2.1]octan-3-yl)-2-(((R)-1-((6,6-difluoro-2-azaspiro[3.3]heptan-2-yl)methyl)-2,2-difluorocyclopropyl)methoxy)-8-(5-ethynyl-1H-thieno[3,2-f]indazol-4-yl)pyrido[4′,3′:4,5]thieno[2,3-d]pyrimidine]: the IC50 turned out to be 42.5 nM in test [1], 430 nM in test [2], 704 nM in test [3] and 1.43 nM in test [4].
The like results for `C#Cc1csc2cc3[nH]ncc3c(-c3nccc4c3sc3nc(OCC5(C#N)CCOCC5)nc(N5C[C@H]6CC[C@@H](C5)N6)c34)c12` [Ex-84, 4-(((4-((1R,5S)-3,8-diazabicyclo[3.2.1]oc-tan-3-yl)-8-(5-ethynyl-1H-thieno[3,2-f]indazol-4-yl)pyrido[4′,3′:4,5]thi-eno[2,3-d]pyrimi-din-2-yl)oxy)methyl)tetrahydro-2H-pyran-4-carbonitrile] were, in that order, 2940 nM, more than 11100 nM, more than 11100 nM and 111 nM.
As for `C#Cc1csc2cc3[nH]ncc3c(-c3nccc4c3sc3nc(OC[C@@]56CCCN5C/C(=C\F)C6)nc(N5C[C@H]6CC[C@@H](C5)N6)c34)c12` [Ex-85, 4-((1R,5S)-3,8-diazabicyclo[3.2.1]octan-3-yl)-8-(5-ethynyl-1H-thieno[3,2-f]indazol-4-yl)-2-(((S,Z)-2-(fluoromethylene)tetrahydro-1H-pyrrolizin-7a(5H)-yl)methoxy)pyrido[4′,3′:4,5]thieno[2,3-d]pyrimidine], the half-inhibitory concentration (IC50) turned out to be 8.52 nM in test [1], 32.1 nM in test [2], 28.2 nM in test [3] and 2.06 nM in test [4].

The values are drawn from patent US20260347372A1, “SMALL MOLECULE INHIBITORS OF KRAS G12D MUTANT” (MERCK SHARP & DOHME LLC, priority 2023, published 2026).
